Source: patent US4349685A (priority 1981, dated 1982)

Legend:
[1] = test system: causative organism of wheat leaf rust; assay: Control of wheat leaf rust by aqueous suspension of the compound; format: in vivo; details: 300 parts per million by weight, sole compound
[2] = test system: causative organism of downey mildew; assay: Control of downey mildew on host plants (root drench and foliar treatment); format: in vivo; details: 500 parts per million by weight solution; root system application and foliar treatment of host plants
Description: Solutions containing 500 parts per million by weight of the compound were formulated and applied to the host plants through two different modes of administration. First, the solution was applied to the root system of the host plants by drenching the chemicals into the pots or by placing the pots into larger cups containing the solution of the compound. Second, a foliar chemical treatment was applied to the host plants. The plants were then exposed to the pathogen and placed under conditions suitable for infection and development of the disease.

Structure (SMILES): CCC(=O)OCCNC(=O)Oc1ccc2oc(=O)sc2c1 [Example 1, 5-[2-(Propionyloxy)ethylcarbamoyloxy]-1,3-benzoxathiol-2-one]
- kill of the causative organism of wheat leaf rust [1]: substantially complete kill

Structure (SMILES): CCc1cccc(NC(=O)Oc2ccc3oc(=O)sc3c2)c1 [Example 4, 5-[(3-Ethylphenyl)carbamoyloxy]-1,3-benzoxathiol-2-one]
- control of the causative organism of downey mildew [2]: 90%
